# PMC3454376, “Salidroside Improves Behavioral and Histological Outcomes and Reduces Apoptosis via PI3K/Akt Signaling after Experimental Traumatic Brain Injury” (PLoS ONE, 2012)
# System: mice subjected to controlled cortical impact injury
# Assay: Contusion volume, cresyl violet staining
# Format: in vivo
# Conditions: day 28; for contusion volume: vehicle 13.5±4.0
# Experimental: All animal procedures were approved by the Animal Research Committee at Cheng Hsin General Hospital (Animal permit number […] 101-08), and all procedures complied with the Guide for the Care and Use of Laboratory Animals published by the US National Institutes of Health (NIH Publication No. 85-23, revised 1996). Animals were housed under a 12-h light/dark cycle and at constant temperature (21-25°C) and humidity (45-50%). They were allowed free access to pellet chow and water. TBI in mice was induced by a CCI injury model as previously described. Briefly, 8-week-old male C57BL/6 mice (weighing 22-25 g) were anesthetized through the use of intraperitoneal injection of sodium pentobarbital (65 mg/kg; Rhone Merieux, Harlow, UK) and placed in a stereotaxic frame. A 5 mm craniotomy was performed over the right parietal cortex, centered on the coronal suture and 0.1 mm lateral to the sagittal suture, and injury to dura was avoided. Injury was induced using a pneumatic piston with a rounded metal tip (2.5 mm diameter) that was angled 22.5° to the vertical so that the tip was perpendicular with the brain surface at the center of the craniotomy. The impact, with a velocity of […] and a deformation depth of 2 mm below the dura, was applied. The bone flap was immediately replaced and sealed, and the scalp was sutured. Body temperature was monitored throughout the surgery by a rectal probe; temperature was maintained at 37.0±0.5°C using a heated pad. Mice were placed in a heated cage to maintain body temperature, while recovering from anesthesia. Sham-operated mice underwent the same procedure as injured mice, but without CCI. Three sets of experiments were performed. The first set was to investigate the protective effects of salidroside. All animals were randomized into 1 of 3 groups (sham injury, CCI + vehicle, CCI + SALD 20). […] To determine the optimal dose of salidroside, a pilot study was performed using 2 different doses (20 and 50 mg/kg) administered 10 min after injury, and neurological deficits and tissue damage were evaluated as the main outcomes. […]
smiles,measurement,setting,value
"OC[C@H]1O[C@@H](OCCc2ccc(O)cc2)[C@H](O)[C@@H](O)[C@@H]1O [SALD, salidroside]",contusion volume as % of the vehicle group,20 mg/kg ip 10 min after CCI,73.8%
same,contusion volume,"20 mg/kg ip 10 min after CCI, P<0.05",9.9±1.1 mm^3
same,contusion volume,"50 mg/kg ip 10 min after CCI, P>0.05",11.7±3.2 mm^3
